Reference: patent publication US20240252488A1 (KOREA RESEARCH INSTITUTE OF CHEMICAL TECHNOLOGY, priority 2020, published 2024)

Experiments:
FADD−/− Jurkat cells = assay: Necroptosis inhibition assay, TNF-α-induced necroptosis (CellTiter-Glo 2.0); format: cell-based, human; details: TNF-α 15 ng/mL, FADD−/− Jurkat cells; for Necroptosis inhibition assay (Rescue %) 1 μM: compound 1 μM; for Necroptosis inhibition assay (Rescue %) 10 μM: compound 10 μM
Summary of the method: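 Tested at three fixed concentrations (0.1, 1, 10 μM final) with a 30-minute room-temperature preincubation ahead of 15 ng/mL TNF-α challenge lasting 20 to 24 hours. Inhibition rate and cytotoxicity derive from ATP luminescence.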

MLKL [1] = target: T1, MLKL (Homo sapiens, UniProt Q8NB16); assay: Measurement of binding affinity with MLKL receptor (competitive binding assay, Kd); parameters: made in house; host or cells: HEK 293 cell line (T7 phage in E. coli BL21-derived host is also described)
T1 sequence (Q8NB16 1-471): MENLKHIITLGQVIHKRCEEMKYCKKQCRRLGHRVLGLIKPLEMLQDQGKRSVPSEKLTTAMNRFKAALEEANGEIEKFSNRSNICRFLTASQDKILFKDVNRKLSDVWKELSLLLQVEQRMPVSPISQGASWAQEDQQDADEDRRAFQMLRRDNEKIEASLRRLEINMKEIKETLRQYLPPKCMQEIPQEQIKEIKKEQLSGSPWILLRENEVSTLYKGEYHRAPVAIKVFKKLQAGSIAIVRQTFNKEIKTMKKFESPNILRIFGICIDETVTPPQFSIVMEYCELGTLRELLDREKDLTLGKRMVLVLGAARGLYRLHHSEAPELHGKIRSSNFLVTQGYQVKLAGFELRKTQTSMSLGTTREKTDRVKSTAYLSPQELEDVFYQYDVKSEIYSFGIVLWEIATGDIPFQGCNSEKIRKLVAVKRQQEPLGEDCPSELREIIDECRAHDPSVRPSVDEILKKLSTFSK
Summary of the method: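 HEK 293-expressed, DNA-tagged MLKL; ligand beads blocked with biotin and SeaBlock/1% BSA/0.05% Tween 20/1 mM DTT buffer. Cpd from 111× DMSO stock, 0.9% DMSO final. Eluted kinase by qPCR → Kd.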

MLKL [2] = target: T1, MLKL; assay: MLKL degradation assay in HepG2 cell line (western blot); format: cell-based; parameters: endogenous in cells; host or cells: HepG2 or HaCaT; details: cell line not given; for Degradation assay (Degradation %) 1 μM: compound 1 μM; for Degradation assay (Degradation %) 10 μM: compound 10 μM
Summary of the method: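 Degradation is judged from MLKL band intensity on immunoblots of HepG2 lysates taken after 20-24 hours of compound at final 1 or 10 μM.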

Row | Kd (MLKL [1]) [nM] | Degradation assay (Degradation %) 1 μM (MLKL [2]) [%] | Degradation assay (Degradation %) 10 μM (MLKL [2]) [%] | SMILES | Necroptosis inhibition assay (Rescue %) 1 μM (FADD−/− Jurkat cells) [%] | Necroptosis inhibition assay (Rescue %) 10 μM (FADD−/− Jurkat cells) [%]
1 | 10 | 74.57 | 51.38 | Nc1ncc(-c2cnn(C3CCN(C(=O)CCC4CCN(c5ccc6c(c5)C(=O)N(C5CCC(=O)NC5=O)C6=O)CC4)CC3)c2)nc1C(=O)O[C@@H](C(=O)Nc1ccc(F)cc1)c1ccccc1 (stereo partly drawn) [TDH-420, (R)-2-((4-fluorophenyl)amino)-2-oxo-1-phenylethyl 3-amino-6-(1-(1-(3-(1-(2-(2,6-dioxopiperidin-3-yl)-1,3-dioxoisoindolin-5-yl)piperidin-4-yl)propanoyl)piperidin-4-yl)-1H-pyrazol-4-yl)pyrazine-2-carboxylate] | 8.39 | 2.00
2 | 5.3 | 86.78 | 86.81 | Nc1ncc(-c2cnn(C3CCN(C(=O)CCC4CCN(C(=O)CNc5cccc6c5C(=O)N(C5CCC(=O)NC5=O)C6=O)CC4)CC3)c2)nc1C(=O)O[C@@H](C(=O)Nc1ccc(F)cc1)c1ccccc1 (stereo partly drawn) [TDH-421, (R)-2-((4-fluorophenyl)amino)-2-oxo-1-phenylethyl 3-amino-6-(1-(1-(3-(1-((2-(2,6-dioxopiperidin-3-yl)-1,3-dioxoisoindolin-4-yl)glycyl)piperidin-4-yl)propanoyl)piperidin-4-yl)-1H-pyrazol-4-yl)pyrazine-2-carboxylate] | 37.14 | 35.74
3 | 4.1 | 91.95 | 89.12 | Nc1ncc(-c2cnn(C3CCN(C(=O)CCC4CCN(C(=O)CNc5ccc6c(c5)C(=O)N(C5CCC(=O)NC5=O)C6=O)CC4)CC3)c2)nc1C(=O)O[C@@H](C(=O)Nc1ccc(F)cc1)c1ccccc1 (stereo partly drawn) [TDH-422, (R)-2-((4-fluorophenyl)amino)-2-oxo-1-phenylethyl 3-amino-6-(1-(1-(3-(1-((2-(2,6-dioxopiperidin-3-yl)-1,3-dioxoisoindolin-5-yl)glycyl)piperidin-4-yl)propanoyl)piperidin-4-yl)-1H-pyrazol-4-yl)pyrazine-2-carboxylate] | 50.21 | 40.34
4 | 0.34 | 50.12 | 88.68 | Nc1ncc(-c2cnn(C3CCN(CC4CCN(CC5CCN(C(=O)COc6ccc7c(c6)C(=O)N(C6CCC(=O)NC6=O)C7=O)CC5)CC4)CC3)c2)nc1C(=O)O[C@@H](C(=O)Nc1ccc(F)cc1)c1ccccc1 (stereo partly drawn) [TDH-425, (R)-2-((4-fluorophenyl)amino)-2-oxo-1-phenylethyl 3-amino-6-(1-(1-((1-((1-(2-((2-(2,6-dioxopiperidin-3-yl)-1,3-dioxoisoindolin-5-yl)oxy)acetyl)piperidin-4-yl)methyl)piperidin-4-yl)methyl)piperidin-4-yl)-1H-pyrazol-4-yl)pyrazine-2-carboxylate] | 67.90 | 
5 | 1.2 | 18.62 | 57.41 | Nc1ncc(-c2cnn(C3CCN(CC4CCN(CC5CCN(C(=O)CNc6ccc7c(c6)C(=O)N(C6CCC(=O)NC6=O)C7=O)CC5)CC4)CC3)c2)nc1C(=O)O[C@@H](C(=O)Nc1ccc(F)cc1)c1ccccc1 (stereo partly drawn) [TDH-426, (R)-2-((4-fluorophenyl)amino)-2-oxo-1-phenylethyl 3-amino-6-(1-(1-((1-((1-((2-(2,6-dioxopiperidin-3-yl)-1,3-dioxoisoindolin-5-yl)glycyl)piperidin-4-yl)methyl)piperidin-4-yl)methyl)piperidin-4-yl)-1H-pyrazol-4-yl)pyrazine-2-carboxylate] | 55.42 | 
6 | 2.4 | 75.94 | 59.59 | Nc1ncc(-c2cnn(C3CCN(C(=O)CCC4CCN(C(=O)C5CN(c6cccc7c6C(=O)N(C6CCC(=O)NC6=O)C7=O)C5)CC4)CC3)c2)nc1C(=O)O[C@@H](C(=O)Nc1ccc(F)cc1)c1ccccc1 (stereo partly drawn) [TDH-427, (R)-2-((4-fluorophenyl)amino)-2-oxo-1-phenylethyl 3-amino-6-(1-(1-(3-(1-(1-(2-(2,6-dioxopiperidin-3-yl)-1,3-dioxoisoindolin-4-yl)azetidine-3-carbonyl)piperidin-4-yl)propanoyl)piperidin-4-yl)-1H-pyrazol-4-yl)pyrazine-2-carboxylate] | 5.57 | 9.73
7 | 4.1 | 58.66 | 85.95 | Nc1ncc(-c2cnn(C3CCN(C(=O)CCC4CCN(C(=O)C5CN(c6ccc7c(c6)C(=O)N(C6CCC(=O)NC6=O)C7=O)C5)CC4)CC3)c2)nc1C(=O)O[C@@H](C(=O)Nc1ccc(F)cc1)c1ccccc1 (stereo partly drawn) [TDH-428, (R)-2-((4-fluorophenyl)amino)-2-oxo-1-phenylethyl 3-amino-6-(1-(1-(3-(1-(1-(2-(2,6-dioxopiperidin-3-yl)-1,3-dioxoisoindolin-5-yl)azetidine-3-carbonyl)piperidin-4-yl)propanoyl)piperidin-4-yl)-1H-pyrazol-4-yl)pyrazine-2-carboxylate] | 27.27 | 9.58
8 | 2.3 | 77.13 | 63.72 | Nc1ncc(-c2cnn(C3CCN(C(=O)CCC4CCN(C(=O)CC5CCN(c6cccc7c6C(=O)N(C6CCC(=O)NC6=O)C7=O)CC5)CC4)CC3)c2)nc1C(=O)O[C@@H](C(=O)Nc1ccc(F)cc1)c1ccccc1 (stereo partly drawn) [TDH-429, (R)-2-((4-fluorophenyl)amino)-2-oxo-1-phenylethyl 3-amino-6-(1-(1-(3-(1-(2-(1-(2-(2,6-dioxopiperidin-3-yl)-1,3-dioxoisoindolin-4-yl)piperidin-4-yl)acetyl)piperidin-4-yl)propanoyl)piperidin-4-yl)-1H-pyrazol-4-yl)pyrazine-2-carboxylate] | 18.34 | 11.03
9 | 2.2 | 65.96 | 36.66 | Nc1ncc(-c2cnn(C3CCN(C(=O)CCC4CCN(C(=O)CC5CCN(c6ccc7c(c6)C(=O)N(C6CCC(=O)NC6=O)C7=O)CC5)CC4)CC3)c2)nc1C(=O)O[C@@H](C(=O)Nc1ccc(F)cc1)c1ccccc1 (stereo partly drawn) [TDH-430, (R)-2-((4-fluorophenyl)amino)-2-oxo-1-phenylethyl 3-amino-6-(1-(1-(3-(1-(2-(1-(2-(2,6-dioxopiperidin-3-yl)-1,3-dioxoisoindolin-5-yl)piperidin-4-yl)acetyl)piperidin-4-yl)propanoyl)piperidin-4-yl)-1H-pyrazol-4-yl)pyrazine-2-carboxylate] | 15.88 | 14.13
10 | 1 | 86.88 | 76.78 | Nc1ncc(-c2cnn(C3CCN(C(=O)CCC4CCN(C(=O)CCc5cccc6c5C(=O)N(C5CCC(=O)NC5=O)C6=O)CC4)CC3)c2)nc1C(=O)O[C@@H](C(=O)Nc1ccc(F)cc1)c1ccccc1 (stereo partly drawn) [TDH-431, (R)-2-((4-fluorophenyl)amino)-2-oxo-1-phenylethyl 3-amino-6-(1-(1-(3-(1-(3-(2-(2,6-dioxopiperidin-3-yl)-1,3-dioxoisoindolin-4-yl)propanoyl)piperidin-4-yl)propanoyl)piperidin-4-yl)-1H-pyrazol-4-yl)pyrazine-2-carboxylate] | 37.24 | 17.64
11 | 0.9 | 89.17 | 73.05 | Nc1ncc(-c2cnn(C3CCN(C(=O)CCC4CCN(C(=O)CCc5ccc6c(c5)C(=O)N(C5CCC(=O)NC5=O)C6=O)CC4)CC3)c2)nc1C(=O)O[C@@H](C(=O)Nc1ccc(F)cc1)c1ccccc1 (stereo partly drawn) [TDH-432, (R)-2-((4-fluorophenyl)amino)-2-oxo-1-phenylethyl 3-amino-6-(1-(1-(3-(1-(3-(2-(2,6-dioxopiperidin-3-yl)-1,3-dioxoisoindolin-5-yl)propanoyl)piperidin-4-yl)propanoyl)piperidin-4-yl)-1H-pyrazol-4-yl)pyrazine-2-carboxylate] | 12.47 | 0.07
